Entries after “also recorded” stand apart in the source; their conditions may differ.
How the values were obtained:
[1] = test system: rat spontaneous locomotor activity (sLMA); assay: Rat spontaneous locomotor activity (sLMA) assay; assay type: in vivo; settings: rats, 0-30 min; compound of Formula (I) 1 mg/kg p.o., propranolol 1 or 3 mg/kg i.p., alone or in combination
Experimental: […] Rat sLMA was measured from 0-30 min (0 minutes is 60 minutes after administration of the compound of Formula (I) and 20 minutes after administration of propranolol).

[2] = test system: harmaline-induced tremor in male SD rats; assay: Tremor assessment (tremor score 0-4) with harmaline in SD rats; assay type: in vivo, rat; settings: harmaline 30 mg/kg, 10 mg/kg
Description: Each of six groups of male SD rats were subjected to a tremor assessment, followed by three ADL-like measures including open field test, rotarod test, and wire grip test after receiving doses of either vehicle, Formula (I), or propranolol, followed by either saline or harmaline, as outlined below in Table 22 below. Twenty minutes after administration of harmaline or saline, the rats were subjected to a tremor assessment using the score criteria outlined in the table below.

[3] = test system: harmaline-induced decrease in travelling distance in male SD rats; assay: Open field test with harmaline in SD rats; assay type: in vivo, rat; settings: harmaline 30 mg/kg, 10 mg/kg
Experimental: (§1) Each of six groups of male SD rats were subjected to a tremor assessment, followed by three ADL-like measures including open field test, rotarod test, and wire grip test after receiving doses of either vehicle, Formula (I), or propranolol, followed by either saline or harmaline, as outlined below in Table 22 below.
Fifteen minutes after the tremor assessment, the rats were subjected to an open field test. FIG. 8 is a bar graph showing the traveling distance in 0-5 minutes (mm) measured in rats that were administered 30 mg/kg harmaline and also administered 10 mg/kg propranolol or 1 mg/kg, 3 mg/kg or 10 mg/kg study drug.

[4] = test system: harmaline-induced motor impairment in male SD rats; assay: Rotarod test with harmaline in SD rats; assay type: in vivo, rat; settings: harmaline 30 mg/kg, 10 mg/kg
Experimental: as §1
Fifteen minutes after the open field test, the rats were subjected to a rotarod test. The speed of the rotarod increased from 10 rpms to 60 rpms within the first five minutes of the test. FIG. 9 is a bar graph showing the mean of latency to fall in the rotarod test measured in rats that were administered 30 mg/kg harmaline and also administered 10 mg/kg propranolol or 1 mg/kg, 3 mg/kg or 10 mg/kg study drug.

[5] = test system: harmaline-induced motor impairment in male SD rats; assay: Wire grip test with harmaline in SD rats; assay type: in vivo, rat; settings: harmaline 30 mg/kg, 10 mg/kg, reference compound
Description: as §1
Fifteen minutes after the rotarod test, rats were subjected to a wire grip test using an 80 cm long and 7 mm in diameter wire placed at a height of 50 cm.

[6] = Plasma and brain tissue concentrations in rats after harmaline testing; assay type: in vivo, rat; settings: collected immediately after harmaline testing
Experimental: Plasma and brain tissue sample collection (at 90 min post dosing of study compound) was evaluated in […]. N=15 in each group. Plasma and brain tissue samples were collected immediately after harmaline testing. Plasma sample number: 5×15=75. Brain tissue sample number: 5×15=75.

CC(C)NCC(O)COc1cccc2ccccc12 (stereo not drawn) [propranolol, reference compound]
total sLMA (total distance travelled) [1]: do not significantly reduce
average tremor score vs vehicle and harmaline only [2]: significantly lower; also recorded: significantly inhibited
harmaline-induced decrease in spontaneous locomotor activity in the open field [3]: no effect
latency to fall in rotarod test vs vehicle and harmaline only [4]: failed to display any significant improvement; also recorded: no effect
latency to fall in wire grip test [5]: significant reduction in motor impairment; also recorded: significantly attenuated
plasma and brain concentrations [6]: consistent with those measured in previous studies

From US20250170114A1, “METHODS OF TREATMENT USING T-TYPE CALCIUM CHANNEL MODULATORS” (Praxis Precision Medicines, Inc., priority 2022, published 2025)
